What was measured:
[1] = target: T1, full-length SARS-CoV-2 3CL protease (Severe acute respiratory syndrome coronavirus 2, UniProt P0DTD1); assay: SARS-CoV-2 Coronavirus 3C Protease FRET Assay (Dabcyl-KTSAVLQ-SGFRKME-Edans substrate); type: biochemical; conditions: 15 nM enzyme, 25 μM peptide substrate, 60 minutes at 23° C.; Morrison equation fit; read-out: Geometric Mean Ki
T1 construct: measures the activity of full-length SARS-CoV-2 3CL protease

[2] = system: SARS-CoV-2 (USA_WA1/2020) in VeroE6 cells enriched for hACE2 expression; assay: microbe, parasite or virus in culture; type: cell-based; conditions: Severe acute respiratory syndrome coronavirus 2, Vero C1008, 72 h, read-out: Geometric Mean EC50

Row | SMILES | Ki [1] [nM] | EC50 [2] [nM]
1 | COc1cccc2[nH]c(C(=O)N[C@@H](CC(C)C)C(=O)N[C@@H](C[C@@H]3CCNC3=O)C(=O)COC(=O)C3(C)CCC3)cc12 [Example 14, (3S)-3-({N-[(4-methoxy-1H-indol-2-yl)carbonyl]-L-leucyl}amino)-2-oxo-4-[(3S)-2-oxopyrrolidin-3-yl]butyl 1-methylcyclobutanecarboxylate] | 348 | 505
2 | COc1cccc2[nH]c(C(=O)N[C@@H](CC(C)C)C(=O)N[C@@H](C[C@@H]3CCNC3=O)C(=O)COC(=O)C3CCCCC3)cc12 [Example 12, (3S)-3-({N-[(4-methoxy-1H-indol-2-yl)carbonyl]-L-leucyl}amino)-2-oxo-4-[(3S)-2-oxopyrrolidin-3-yl]butyl cyclohexanecarboxylate] | 73.8 | 109
3 | COc1cccc2[nH]c(C(=O)N[C@@H](CC(C)C)C(=O)N[C@@H](C[C@@H]3CCNC3=O)C(=O)COC(=O)c3ccccc3CN(C)C)cc12 [Example 53, (3S)-3-({N-[(4-methoxy-1H-indol-2-yl)carbonyl]-L-leucyl}amino)-2-oxo-4-[(3S)-2-oxopyrrolidin-3-yl]butyl 2-[(dimethylamino)methyl]benzoate] | 14 | 538
4 | COc1cccc2[nH]c(C(=O)N[C@@H](CC(C)C)C(=O)N[C@@H](C[C@@H]3CCNC3=O)C(=O)COC(=O)c3c(C)ncnc3C)cc12 [Example 71, (3S)-3-({N-[(4-methoxy-1H-indol-2-yl)carbonyl]-L-leucyl}amino)-2-oxo-4-[(3S)-2-oxopyrrolidin-3-yl]butyl 4,6-di methylpyrimidine-5-carboxylate] | 0.928 | 315
5 | COc1cccc2[nH]c(C(=O)N[C@@H](CC(C)C)C(=O)N[C@@H](C[C@@H]3CCNC3=O)C(=O)COC(=O)c3c(C)nc(C)nc3C)cc12 [Example 70, (3S)-3-({N-[(4-methoxy-1H-indol-2-yl)carbonyl]-L-leucyl}amino)-2-oxo-4-[(3S)-2-oxopyrrolidin-3-yl]butyl 2,4,6-trimethylpyrimidine-5-carboxylate] | 5.89 | 4800
6 | COc1cccc2[nH]c(C(=O)N[C@@H](CC(C)C)C(=O)N[C@@H](C[C@@H]3CCNC3=O)C(=O)COC(=O)C(C)C)cc12 [Example 10, (3S)-3-({N-[(4-methoxy-1H-indol-2-yl)carbonyl]-L-leucyl}amino)-2-oxo-4-[(3S)-2-oxopyrrolidin-3-yl]butyl 2-methylpropanoate] | 63.7 | 205
7 | COc1cccc2[nH]c(C(=O)N[C@@H](CC(C)C)C(=O)N[C@@H](C[C@@H]3CCNC3=O)C(=O)COC(=O)c3c(C)cc(C#N)cc3C)cc12 [Example 65, (3S)-3-({N-[(4-methoxy-1H-indol-2-yl)carbonyl]-L-leucyl}amino)-2-oxo-4-[(3S)-2-oxopyrrolidin-3-yl]butyl 4-cyano-2,6-dimethylbenzoate] | 7.67 | 51.3
8 | COc1cccc2[nH]c(C(=O)N[C@@H](CC(C)C)C(=O)N[C@@H](C[C@@H]3CCNC3=O)C(=O)COC(=O)c3cnn(C)c3)cc12 [Example 44, (3S)-3-({N-[(4-methoxy-1H-indol-2-yl)carbonyl]-L-leucyl}amino)-2-oxo-4-[(3S)-2-oxopyrrolidin-3-yl]butyl 1-methyl-1H-pyrazole-4-carboxylate] | 90.6 | –
9 | COc1cccc2[nH]c(C(=O)N[C@@H](CC(C)C)C(=O)N[C@@H](C[C@@H]3CCNC3=O)C(=O)COC(=O)c3ccccc3Cl)cc12 [Example 16, (3S)-3-({N-[(4-methoxy-1H-indol-2-yl)carbonyl]-L-leucyl}amino)-2-oxo-4-[(3S)-2-oxopyrrolidin-3-yl]butyl 2-chlorobenzoate] | 10.5 | –
10 | COc1cccc2[nH]c(C(=O)N[C@@H](CC(C)C)C(=O)N[C@@H](C[C@@H]3CCNC3=O)C(=O)COC(=O)c3cn(C)cn3)cc12 [Example 51, (3S)-3-({N-[(4-methoxy-1H-indol-2-yl)carbonyl]-L-leucyl}amino)-2-oxo-4-[(3S)-2-oxopyrrolidin-3-yl]butyl 1-methyl-1H-imidazole-4-carboxylate] | 152 | –
11 | COc1ccccc1C(=O)OCC(=O)[C@H](C[C@@H]1CCNC1=O)NC(=O)[C@H](CC(C)C)NC(=O)c1cc2c(OC)cccc2[nH]1 [Example 15, (3S)-3-({N-[(4-methoxy-1H-indol-2-yl)carbonyl]-L-leucyl}amino)-2-oxo-4-[(3S)-2-oxopyrrolidin-3-yl]butyl 2-methoxybenzoate] | 147 | –
12 | COc1cccc2[nH]c(C(=O)N[C@@H](CC(C)C)C(=O)N[C@@H](C[C@@H]3CCNC3=O)C(=O)COC(=O)C3CCN(C)CC3)cc12 [Example 30, (3S)-3-({N-[(4-methoxy-1H-indol-2-yl)carbonyl]-L-leucyl}amino)-2-oxo-4-[(3S)-2-oxopyrrolidin-3-yl]butyl 1-methylpiperidine-4-carboxylate] | 6.13 | –
13 | COc1cccc2[nH]c(C(=O)N[C@@H](CC(C)C)C(=O)N[C@@H](C[C@@H]3CCNC3=O)C(=O)COC(=O)c3cncn3C)cc12 [Example 45, (3S)-3-({N-[(4-methoxy-1H-indol-2-yl)carbonyl]-L-leucyl}amino)-2-oxo-4-[(3S)-2-oxopyrrolidin-3-yl]butyl 1-methyl-1H-imidazole-5-carboxylate] | 40.7 | –
14 | COc1cccc2[nH]c(C(=O)N[C@@H](CC(C)C)C(=O)N[C@@H](C[C@@H]3CCNC3=O)C(=O)COC(=O)c3c(C)ccnc3C)cc12 [Example 62, (3S)-3-({N-[(4-methoxy-1H-indol-2-yl)carbonyl]-L-leucyl}amino)-2-oxo-4-[(3S)-2-oxopyrrolidin-3-yl]butyl 2,4-dimethylpyridine-3-carboxylate] | 4.29 | –
15 | CC[C@@H](C)C(=O)OCC(=O)[C@H](C[C@@H]1CCNC1=O)NC(=O)[C@H](CC(C)C)NC(=O)c1cc2c(OC)cccc2[nH]1 [Example 19, (3S)-3-({N-[(4-methoxy-1H-indol-2-yl)carbonyl]-L-leucyl}amino)-2-oxo-4-[(3S)-2-oxopyrrolidin-3-yl]butyl (2R)-2-methylbutanoate] | 64.8 | –
16 | COc1cccc2[nH]c(C(=O)N[C@@H](CC(C)C)C(=O)N[C@@H](C[C@@H]3CCNC3=O)C(=O)COC(=O)c3c(C)cc(F)cc3C)cc12 [Example 74, (3S)-3-({N-[(4-methoxy-1H-indol-2-yl)carbonyl]-L-leucyl}amino)-2-oxo-4-[(3S)-2-oxopyrrolidin-3-yl]butyl 4-fluoro-2,6-dimethylbenzoate] | 44.3 | –
17 | COc1cccc2[nH]c(C(=O)N[C@@H](CC(C)C)C(=O)N[C@@H](C[C@@H]3CCNC3=O)C(=O)COC(=O)c3c(C)cccc3Cl)cc12 [Example 67, (3S)-3-({N-[(4-methoxy-1H-indol-2-yl)carbonyl]-L-leucyl}amino)-2-oxo-4-[(3S)-2-oxopyrrolidin-3-yl]butyl 2-chloro-6-methyl benzoate] | 8.82 | 163
18 | COc1cccc2[nH]c(C(=O)N[C@@H](CC(C)C)C(=O)N[C@@H](C[C@@H]3CCNC3=O)C(=O)COC(=O)[C@H]3CCCCN3C)cc12 [Example 37, (3S)-3-({N-[(4-methoxy-1H-indol-2-yl)carbonyl]-L-leucyl}amino)-2-oxo-4-[(3S)-2-oxopyrrolidin-3-yl]butyl (2R)-1-methylpiperidine-2-carboxylate] | 1.42 | –
